Test results taken from PubChem BioAssay AID1919005 (Molecular Pharmacology Branch, DTP, NCI, 2023).
Several values for one entry are separate records, joined by “and”; a condition that tells them apart may be missing. Identical values can stand only once.

System: 855422-203-R-J1-PDC complex spheroid growth
Assay: Anticancer human tumor 855422-203-R-J1-PDC patient-derived bladder carcinoma cell line growth inhibition [AhR]
Conditions: for viability, T/C: stronger effect = lower value; active means viability on the fitted dose curve at most 10% of control; inactive means the rest
Procedure, shortened: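 Complex tumor spheroids co-cultured with HUVEC and human MSC stroma; AhR antagonists tested in combination with standard-of-care and investigational agents. Top concentration at or near clinical Cmax (else 10 microM), half-log dilutions; growth expressed as percent test/control.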

[1] = curve of first compound, second compound 0.1 µM
[2] = curve of first compound, second compound 0.316 µM
[3] = curve of first compound, second compound 1 µM
[4] = curve of first compound, second compound 3.16 µM
[5] = curve of first compound, second compound 10 µM
[6] = second compound 0.1 µM, first compound 0.000949 µM
[7] = second compound 0.1 µM, first compound 0.003 µM
[8] = second compound 0.1 µM, first compound 0.00949 µM
[9] = second compound 0.1 µM, first compound 0.03 µM
[10] = second compound 0.1 µM, first compound 0.0949 µM
[11] = second compound 0.1 µM, first compound 0.3 µM
[12] = second compound 0.316 µM, first compound 0.000949 µM
[13] = second compound 0.316 µM, first compound 0.003 µM
[14] = second compound 0.316 µM, first compound 0.00949 µM
[15] = second compound 0.316 µM, first compound 0.03 µM
[16] = second compound 0.316 µM, first compound 0.0949 µM
[17] = second compound 0.316 µM, first compound 0.3 µM
[18] = second compound 1 µM, first compound 0.000949 µM
[19] = second compound 1 µM, first compound 0.003 µM
[20] = second compound 1 µM, first compound 0.00949 µM
[21] = second compound 1 µM, first compound 0.03 µM
[22] = second compound 1 µM, first compound 0.0949 µM
[23] = second compound 1 µM, first compound 0.3 µM
[24] = second compound 3.16 µM, first compound 0.000949 µM
[25] = second compound 3.16 µM, first compound 0.003 µM
[26] = second compound 3.16 µM, first compound 0.00949 µM
[27] = second compound 3.16 µM, first compound 0.03 µM
[28] = second compound 3.16 µM, first compound 0.0949 µM
[29] = second compound 3.16 µM, first compound 0.3 µM
[30] = second compound 10 µM, first compound 0.000949 µM
[31] = second compound 10 µM, first compound 0.003 µM
[32] = second compound 10 µM, first compound 0.00949 µM
[33] = second compound 10 µM, first compound 0.03 µM
[34] = second compound 10 µM, first compound 0.0949 µM
[35] = second compound 10 µM, first compound 0.3 µM
[36] = second compound 0.1 µM, first compound 0.0316 µM
[37] = second compound 0.1 µM, first compound 0.1 µM
[38] = second compound 0.1 µM, first compound 0.316 µM
[39] = second compound 0.1 µM, first compound 1 µM
[40] = second compound 0.1 µM, first compound 3.16 µM
[41] = second compound 0.1 µM, first compound 10 µM
[42] = second compound 0.316 µM, first compound 0.0316 µM
[43] = second compound 0.316 µM, first compound 0.1 µM
[44] = second compound 0.316 µM, first compound 0.316 µM
[45] = second compound 0.316 µM, first compound 1 µM
[46] = second compound 0.316 µM, first compound 3.16 µM
[47] = second compound 0.316 µM, first compound 10 µM
[48] = second compound 1 µM, first compound 0.0316 µM
[49] = second compound 1 µM, first compound 0.1 µM
[50] = second compound 1 µM, first compound 0.316 µM
[51] = second compound 1 µM, first compound 1 µM
[52] = second compound 1 µM, first compound 3.16 µM
[53] = second compound 1 µM, first compound 10 µM
[54] = second compound 3.16 µM, first compound 0.0316 µM
[55] = second compound 3.16 µM, first compound 0.1 µM
[56] = second compound 3.16 µM, first compound 0.316 µM
[57] = second compound 3.16 µM, first compound 1 µM
[58] = second compound 3.16 µM, first compound 3.16 µM
[59] = second compound 3.16 µM, first compound 10 µM
[60] = second compound 10 µM, first compound 0.0316 µM
[61] = second compound 10 µM, first compound 0.1 µM
[62] = second compound 10 µM, first compound 0.316 µM
[63] = second compound 10 µM, first compound 1 µM
[64] = second compound 10 µM, first compound 3.16 µM
[65] = second compound 10 µM, first compound 10 µM
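Further: spheroids exposed to agents for seven days before readout.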
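Wherever viability, T/C is given: percent of DMSO vehicle control luminescence viability.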

Nc1ncn(C2CC(O)C(CO)S2)c(=O)n1 (configuration not stated) + CC(CO)NC(=O)c1cc(-c2ccc(Cl)cc2)nn(-c2cnn(C)c2)c1=O
> 300 nM: IC50 [1] | IC50 [2] | IC50 [3] | IC50 [4] | IC50 [5]
inactive: viability, T/C [6] 91.9% | viability, T/C [7] 90.2% | viability, T/C [8] 88.3% | viability, T/C [9] 93.4% | viability, T/C [10] 96.7% | viability, T/C [11] 87.4% | viability, T/C [12] 97.3% | viability, T/C [13] 93.3% | viability, T/C [14] 99.4% | viability, T/C [15] 95.2% | viability, T/C [16] 87.6% | viability, T/C [17] 82.2% | viability, T/C [18] 99.9% | viability, T/C [19] 90.9% | viability, T/C [20] 101% | viability, T/C [21] 92.1% | viability, T/C [22] 101% | viability, T/C [23] 86.7% | viability, T/C [24] 91.8% | viability, T/C [25] 94.5% | viability, T/C [26] 85.3% | viability, T/C [27] 101% | viability, T/C [28] 90.9% | viability, T/C [29] 80.4% | viability, T/C [30] 92.5% | viability, T/C [31] 98% | viability, T/C [32] 87.3% | viability, T/C [33] 93.5% | viability, T/C [34] 89.8% | viability, T/C [35] 80.3%

CC[C@@]1(O)C(=O)OCc2c1cc1n(c2=O)Cc2cc3c(CN(C)C)c(O)ccc3nc2-1
59.9 nM and 72.9 nM and 94.7 nM: IC50 (curve of compound)
inactive: viability, T/C (compound 0.000316 µM) 93% and 97.1% and 101% | viability, T/C (compound 0.001 µM) 114% and 106% (2×) | viability, T/C (compound 0.00316 µM) 98.4% and 103% and 105% | viability, T/C (compound 0.01 µM) 99.3% and 101% and 106% | viability, T/C (compound 0.0316 µM) 85% and 93.4% and 94.9% | viability, T/C (compound 0.1 µM) 22.1% and 33.6% and 47.4%

COc1ccc([C@@H](O)c2cc(-c3ncnc4cc(N5CCOCC5)ccc34)c(F)cc2Cl)nn1 + CC(CO)NC(=O)c1cc(-c2ccc(Cl)cc2)nn(-c2cnn(C)c2)c1=O
> 10000 nM: IC50 [1] | IC50 [2] | IC50 [3] | IC50 [4] | IC50 [5]
inactive: viability, T/C [36] 94.1% | viability, T/C [37] 85.3% | viability, T/C [38] 84.8% | viability, T/C [39] 86.3% | viability, T/C [40] 74.7% | viability, T/C [41] 58.4% | viability, T/C [42] 96.4% | viability, T/C [43] 96.6% | viability, T/C [44] 86% | viability, T/C [45] 74.5% | viability, T/C [46] 74.6% | viability, T/C [47] 54.6% | viability, T/C [48] 85.3% | viability, T/C [49] 90.6% | viability, T/C [50] 92.3% | viability, T/C [51] 86.9% | viability, T/C [52] 72.7% | viability, T/C [53] 55.4% | viability, T/C [54] 91.5% | viability, T/C [55] 88.5% | viability, T/C [56] 98.9% | viability, T/C [57] 78.5% | viability, T/C [58] 69.6% | viability, T/C [59] 54% | viability, T/C [60] 93.5% | viability, T/C [61] 103% | viability, T/C [62] 82% | viability, T/C [63] 84.2% | viability, T/C [64] 71% | viability, T/C [65] 54.4%

Nc1ccn(C2OC(CO)C(O)C2(F)F)c(=O)n1 (configuration not stated) + CC(CO)NC(=O)c1cc(-c2ccc(Cl)cc2)nn(-c2cnn(C)c2)c1=O
99.5 nM: IC50 [4]
232 nM: IC50 [1]
175 nM: IC50 [3]
166 nM: IC50 [2]
inactive: viability, T/C [36] 99.4% | viability, T/C [37] 79.7% | viability, T/C [38] 38.5% | viability, T/C [39] 18.7% | viability, T/C [40] 14.4% | viability, T/C [41] 10.5% | viability, T/C [42] 88.4% | viability, T/C [43] 71.2% | viability, T/C [44] 22.9% | viability, T/C [45] 15.9% | viability, T/C [46] 13.2% | viability, T/C [47] 8.62% | viability, T/C [48] 97.8% | viability, T/C [49] 74.3% | viability, T/C [50] 23.9% | viability, T/C [51] 17.8% | viability, T/C [52] 14.4% | viability, T/C [53] 8.17% | viability, T/C [54] 89.9% | viability, T/C [55] 50.2% | viability, T/C [56] 22.2% | viability, T/C [57] 16.1% | viability, T/C [58] 11.3% | viability, T/C [59] 9.74% | viability, T/C [60] 81.3% | viability, T/C [61] 59.6% | viability, T/C [62] 19.9% | viability, T/C [63] 14.6% | viability, T/C [64] 14.5% | viability, T/C [65] 8.36%
132 nM: IC50 [5]

CC1COCCN1c1cc(-c2ccnn2C)c2ccnc(-c3ccn[nH]3)c2n1 (configuration not stated) + Cc1cncc(-c2nc(NCCc3c[nH]c4ccccc34)c3ncn(C(C)C)c3n2)c1
361 nM: IC50 [3]
254 nM: IC50 [1]
80.4 nM: IC50 [4]
active: viability, T/C (second compound 10 µM, first compound 0.00316 µM) 3.1% | viability, T/C (second compound 10 µM, first compound 0.01 µM) 4.56% | viability, T/C [60] 3.12% | viability, T/C [61] 6.41% | viability, T/C [62] 2.62% | viability, T/C [63] 1.62%
< 3.16 nM: IC50 [5]
405 nM: IC50 [2]
inactive: viability, T/C (second compound 0.1 µM, first compound 0.00316 µM) 83.7% | viability, T/C (second compound 0.1 µM, first compound 0.01 µM) 96.2% | viability, T/C [36] 93.6% | viability, T/C [37] 97.8% | viability, T/C [38] 39.9% | viability, T/C [39] 12.7% | viability, T/C (second compound 0.316 µM, first compound 0.00316 µM) 91.3% | viability, T/C (second compound 0.316 µM, first compound 0.01 µM) 91.1% | viability, T/C [42] 74.9% | viability, T/C [43] 85.6% | viability, T/C [44] 60.6% | viability, T/C [45] 11.1% | viability, T/C (second compound 1 µM, first compound 0.00316 µM) 77.2% | viability, T/C (second compound 1 µM, first compound 0.01 µM) 79.9% | viability, T/C [48] 85.5% | viability, T/C [49] 71.4% | viability, T/C [50] 55.6% | viability, T/C [51] 10.7% | viability, T/C (second compound 3.16 µM, first compound 0.00316 µM) 75.6% | viability, T/C (second compound 3.16 µM, first compound 0.01 µM) 77.2% | viability, T/C [54] 63% | viability, T/C [55] 28.6% | viability, T/C [56] 50.5% | viability, T/C [57] 9.55%

CC(C)CC(NC(=O)C(Cc1ccccc1)NC(=O)c1cnccn1)B(O)O (configuration not stated) + Cc1cncc(-c2nc(NCCc3c[nH]c4ccccc34)c3ncn(C(C)C)c3n2)c1
active: viability, T/C [8] 1.54% | viability, T/C [9] 0.03% | viability, T/C [10] 0.02% | viability, T/C [11] 0.1% | viability, T/C [14] 2.79% | viability, T/C [15] 0.01% | viability, T/C [16] 0.01% | viability, T/C [17] 0.09% | viability, T/C [19] 9.23% | viability, T/C [20] 1.41% | viability, T/C [21] 0.02% | viability, T/C [22] 0.03% | viability, T/C [23] 1.34% | viability, T/C [25] 4.56% | viability, T/C [26] 0.97% | viability, T/C [27] 2.11% | viability, T/C [28] 0.02% | viability, T/C [29] 0.68% | viability, T/C [30] 4.11% | viability, T/C [31] 0.69% | viability, T/C [32] 0.08% | viability, T/C [33] 1.49% | viability, T/C [34] 0.1% | viability, T/C [35] 0.73%
2.14 nM: IC50 [1]
1.68 nM: IC50 [3]
< 0.949 nM: IC50 [5]
2.02 nM: IC50 [2]
1.29 nM: IC50 [4]
inactive: viability, T/C [6] 93% | viability, T/C [7] 32.3% | viability, T/C [12] 103% | viability, T/C [13] 22.5% | viability, T/C [18] 90.6% | viability, T/C [24] 66.5%
